The test system of this experiment is compound-treated mice. Description: Neuropharmacological assay (SmartCube): behavioral activity signature and minimal effective dose. In kind it is in vivo. To be noted: for minimal effective dose: Mus musculus, ip, MED = dose having 50% or more total activity; for AD: ADHD (probability of activity signature) / AG: analgesic (probability of activity signature) / AX: anxiolytic (probability of activity signature) / CE: cognitive enhancer (probability of activity signature) / DP: anti-depressant (probability of activity signature) / MS: mood stabilizer (probability of activity signature) / PS: anti-psychotic (probability of activity signature) / SD: sedative hypnotic (probability of activity signature) / UN: uncharacterized CNS activity (probability of activity signature): i.p. 15 min before test, most efficacious dose(s). The text has this:
Neurosci. 2011 Sep. 9; 5:103 (doi: 10.3389/fnins.2011.00103) (“Roberds”). As reported in Roberds, because psychiatric diseases generally result from disorders of cell-cell communication or circuitry, intact systems are useful in detecting improvement in disease-relevant endpoints. These endpoints are typically behavioral in nature, often requiring human observation and interpretation. To facilitate testing of multiple compounds for behavioral effects relevant to psychiatric disease, PsychoGenics, Inc. (Tarrytown, N.Y., “PGI”) developed SmartCube™, an automated system in which behaviors of compound-treated mice are captured by digital video and analyzed with computer algorithms. (D. Brunner et al., Drug Discov. Today 2002, 7:S107-S112). PGI Analytical Systems uses data from SmartCube™ to compare the behavioral signature of a test compound to a database of behavioral signatures obtained using a large set of diverse reference compounds. (The composition of the database as well as validation of the method is further described in Roberds). In this way, the neuropharmacological effects of a test compound can be predicted by similarity to major classes of compounds, such as antipsychotics, anxiolytics and antidepressants.
The SmartCube™ system produces an activity signature indicating the probability that the activity of the test compound at the administered dose matches a given class of neuropharmacological agents. (See, e.g., Roberds, FIGS. 2 and 3). The test compound is simultaneously compared against multiple classes of agents; thus, a separate probability is generated for each behavioral effect measured (e.g., anxiolytic activity, analgesic activity, etc.). In the table below, these probabilities are reported for each behavioral effect measured as follows:
where LOQ is the limit of quantification.
Provided compounds were dissolved in a mixture of Pharmasolve™ (N-methyl-2-pyrrolidone), polyethylene glycol and propylene glycol, and were injected i.p. 15 min. before the behavioral test. For each compound, injections were administered at 3 different doses. For each behavioral effect measured, results for the most efficacious dose(s) are presented. In the table below, DP: anti-depressant; AX: anxiolytic; SD: sedative hypnotic; PS: anti-psychotic; MS: mood stabilizer; AD: ADHD; CE: cognitive enhancer; AG: analgesic; UN: uncharacterized CNS activity.
The potency of many of the compounds in the table was also determined in the SmartCube™ system. Test compounds were routinely examined at dose levels of 0.3, 1, 3, 10 and 30 mg per kg (mpk), although the dose range was increased or decreased if necessary to obtain a full dose response curve. A compound's minimal effective dose (MED) is a measure of the compounds potency. The MED was defined as the dose (in mpk) having 50% or more total activity in SmartCube.

Setting [1] is: read-out: Potency: minimal effective dose (MED), binned.
Where [2] appears, read: read-out: Potency: minimal effective dose (MED).

Where a name gives a salt, the structure may show the parent alone. Read-outs that look alike come from different tables or passages of the source.

Take `C#CCN[C@@H]1c2ccccc2CO[C@H]1C.Cl` [Example 267]: the “AD: ADHD (probability of activity signature)” value (“AD: ADHD” for short) is listed as “+ (LOQ ≤ + <5%)”, the “AG: analgesic (probability of activity signature)” value (from here on “AG: analgesic”) is “+ (LOQ ≤ + <5%)”, the “AX: anxiolytic (probability of activity signature)” value (shortened to “AX: anxiolytic”) is on record as “+ (LOQ ≤ + <5%)” and the “CE: cognitive enhancer (probability of activity signature)” value (“CE: cognitive enhancer” for short) was “+ (LOQ ≤ + <5%)”. Further, the “DP: anti-depressant (probability of activity signature)” value (“DP: anti-depressant” below) was “++ (5% ≤ ++ <25%)”, the “MS: mood stabilizer (probability of activity signature)” value (“MS: mood stabilizer” below) is “++ (5% ≤ ++ <25%)”, the “PS: anti-psychotic (probability of activity signature)” value (“PS: anti-psychotic” below) is listed as “+ (LOQ ≤ + <5%)” and the “SD: sedative hypnotic (probability of activity signature)” value (shortened to “SD: sedative hypnotic”) is listed as “++ (5% ≤ ++ <25%)”. For the same compound, the “UN: uncharacterized CNS activity (probability of activity signature)” value (“UN: uncharacterized CNS activity” below) is “++ (5% ≤ ++ <25%)”. Further, the minimal effective dose (usually the smallest amount tested that counted as effective) under setting [1] was below 3 mg/kg.

Turning to `CCN(C)C(=O)Oc1ccc2c(c1)[C@H](N(C)C)[C@@H](C)OC2.Cl` [Example 288], the “AD: ADHD” value was “+ (LOQ ≤ + <5%)”, the “AG: analgesic” value was “+ (LOQ ≤ + <5%)”, the “AX: anxiolytic” value was “+ (LOQ ≤ + <5%)” and the “CE: cognitive enhancer” value is “+ (LOQ ≤ + <5%)”. For the same compound, the “DP: anti-depressant” value is “++ (5% ≤ ++ <25%)”, the “MS: mood stabilizer” value was “+ (LOQ ≤ + <5%)”, the “PS: anti-psychotic” value is on record as “+ (LOQ ≤ + <5%)” and the “SD: sedative hypnotic” value is “++ (5% ≤ ++ <25%)”. The “UN: uncharacterized CNS activity” value is listed as “+ (LOQ ≤ + <5%)”. Besides, the minimal effective dose under setting [1] was above 30 mg/kg.

Turning to `CC1(N)COCc2ccc(F)cc21.Cl` (stereo not shown) [Example 68, 6-Fluoro-4-methylisochroman-4-amine hydrochloride], the “AD: ADHD” value is recorded as “+ (LOQ ≤ + <5%)”, the “AG: analgesic” value is recorded as “++ (5% ≤ ++ <25%)”, the “AX: anxiolytic” value was “++ (5% ≤ ++ <25%)” and the “CE: cognitive enhancer” value was “++ (5% ≤ ++ <25%)”. Besides, the “DP: anti-depressant” value is recorded as “++ (5% ≤ ++ <25%)”, the “MS: mood stabilizer” value was “+ (LOQ ≤ + <5%)”, the “PS: anti-psychotic” value is “++ (5% ≤ ++ <25%)” and the “SD: sedative hypnotic” value is “+ (LOQ ≤ + <5%)”. For the same compound, the “UN: uncharacterized CNS activity” value is listed as “++ (5% ≤ ++ <25%)”. Besides, the minimal effective dose under setting [2] lay within 10 to 30 mg/kg.

`CC(C)c1cccc2c1COCC2N.Cl` (stereo not shown) [Example 18, 8-Isopropylisochroman-4-amine hydrochloride]: the “AD: ADHD” value is given as “+ (LOQ ≤ + <5%)”, the “AG: analgesic” value was “+++ (25% ≤ +++ <50%)”, the “AX: anxiolytic” value is given as “++ (5% ≤ ++ <25%)” and the “CE: cognitive enhancer” value was “++ (5% ≤ ++ <25%)”. Also, the “DP: anti-depressant” value is on record as “++ (5% ≤ ++ <25%)”, the “MS: mood stabilizer” value was “+ (LOQ ≤ + <5%)”, the “PS: anti-psychotic” value is “++ (5% ≤ ++ <25%)” and the “SD: sedative hypnotic” value is recorded as “++ (5% ≤ ++ <25%)”. The “UN: uncharacterized CNS activity” value was “+ (LOQ ≤ + <5%)”. Besides, under setting [2], the minimal effective dose was 10 to 30 mg/kg.

Take `COc1ccc2c(c1)[C@H](N)[C@@H](C)OC2` (single isomer, unassigned) [Example 171]: the “AD: ADHD” value is “+ (LOQ ≤ + <5%)”, the “AG: analgesic” value is listed as “++ (5% ≤ ++ <25%)”, the “AX: anxiolytic” value is on record as “+++ (25% ≤ +++ <50%)” and the “CE: cognitive enhancer” value is recorded as “++ (5% ≤ ++ <25%)”. Besides, the “DP: anti-depressant” value is reported as “++ (5% ≤ ++ <25%)”, the “MS: mood stabilizer” value is listed as “+ (LOQ ≤ + <5%)”, the “PS: anti-psychotic” value is recorded as “++ (5% ≤ ++ <25%)” and the “SD: sedative hypnotic” value was “++ (5% ≤ ++ <25%)”. In addition, the “UN: uncharacterized CNS activity” value is given as “+++ (25% ≤ +++ <50%)”. The minimal effective dose under setting [1] was below 3 mg/kg.

As to `CN[C@@H]1CO[C@H](C)c2ccccc21` (relative stereo) [Example 240, cis-N,1-dimethylisochroman-4-amine hydrochloride], the “AD: ADHD” value is “+ (LOQ ≤ + <5%)”, the “AG: analgesic” value is reported as “++ (5% ≤ ++ <25%)”, the “AX: anxiolytic” value was “++ (5% ≤ ++ <25%)” and the “CE: cognitive enhancer” value is on record as “++ (5% ≤ ++ <25%)”. Moreover, the “DP: anti-depressant” value is listed as “++ (5% ≤ ++ <25%)”, the “MS: mood stabilizer” value is reported as “+ (LOQ ≤ + <5%)”, the “PS: anti-psychotic” value is listed as “++ (5% ≤ ++ <25%)” and the “SD: sedative hypnotic” value is on record as “++ (5% ≤ ++ <25%)”. Also, the “UN: uncharacterized CNS activity” value is reported as “+++ (25% ≤ +++ <50%)”. The minimal effective dose under setting [1] was in the range of 3 to 10 mg/kg.

With `COc1ccc2c(c1)[C@@H](N)[C@@H](C)OC2` (single isomer, unassigned) [Example 174], the “AD: ADHD” value is reported as “+ (LOQ ≤ + <5%)”, the “AG: analgesic” value is listed as “++ (5% ≤ ++ <25%)”, the “AX: anxiolytic” value is on record as “++ (5% ≤ ++ <25%)” and the “CE: cognitive enhancer” value is “++ (5% ≤ ++ <25%)”. Also, the “DP: anti-depressant” value is “++ (5% ≤ ++ <25%)”, the “MS: mood stabilizer” value was “+ (LOQ ≤ + <5%)”, the “PS: anti-psychotic” value is given as “++ (5% ≤ ++ <25%)” and the “SD: sedative hypnotic” value is reported as “+ (LOQ ≤ + <5%)”. Further, the “UN: uncharacterized CNS activity” value is on record as “++++ (50% ≤ ++++)”. Also, the minimal effective dose under setting [1] fell in the range of 3 to 10 mg/kg.

`Cc1ccc2c(c1)[C@H](N)[C@@H](C(C)C)OC2` [Example 210]: the “AD: ADHD” value is “+ (LOQ ≤ + <5%)”, the “AG: analgesic” value was “++ (5% ≤ ++ <25%)”, the “AX: anxiolytic” value is “++ (5% ≤ ++ <25%)” and the “CE: cognitive enhancer” value is listed as “++ (5% ≤ ++ <25%)”. Besides, the “DP: anti-depressant” value is “+ (LOQ ≤ + <5%)”, the “MS: mood stabilizer” value is given as “+ (LOQ ≤ + <5%)”, the “PS: anti-psychotic” value is on record as “+ (LOQ ≤ + <5%)” and the “SD: sedative hypnotic” value is recorded as “+ (LOQ ≤ + <5%)”. The “UN: uncharacterized CNS activity” value is listed as “++++ (50% ≤ ++++)”. For the same compound, the minimal effective dose under setting [1] lay within 3 to 10 mg/kg.

Turning to `Cc1cccc2c1COC[C@@H]2N` (single isomer, unassigned) [Example 130], the “AD: ADHD” value is recorded as “+ (LOQ ≤ + <5%)”, the “AG: analgesic” value is reported as “++ (5% ≤ ++ <25%)”, the “AX: anxiolytic” value was “++ (5% ≤ ++ <25%)” and the “CE: cognitive enhancer” value was “++ (5% ≤ ++ <25%)”. For the same compound, the “DP: anti-depressant” value is on record as “++ (5% ≤ ++ <25%)”, the “MS: mood stabilizer” value is “+ (LOQ ≤ + <5%)”, the “PS: anti-psychotic” value was “+++ (25% ≤ +++ <50%)” and the “SD: sedative hypnotic” value was “++ (5% ≤ ++ <25%)”. Besides, the “UN: uncharacterized CNS activity” value is “++++ (50% ≤ ++++)”. For the same compound, under setting [2], the minimal effective dose was 3 to 10 mg/kg.

As to `CN[C@@H]1COCc2c(Cl)cccc21` [Example 149], the “AD: ADHD” value is given as “+ (LOQ ≤ + <5%)”, the “AG: analgesic” value is listed as “++ (5% ≤ ++ <25%)”, the “AX: anxiolytic” value is “++ (5% ≤ ++ <25%)” and the “CE: cognitive enhancer” value is listed as “++ (5% ≤ ++ <25%)”. Also, the “DP: anti-depressant” value was “++ (5% ≤ ++ <25%)”, the “MS: mood stabilizer” value was “+ (LOQ ≤ + <5%)”, the “PS: anti-psychotic” value is “+++ (25% ≤ +++ <50%)” and the “SD: sedative hypnotic” value is “++ (5% ≤ ++ <25%)”. Moreover, the “UN: uncharacterized CNS activity” value is “+++ (25% ≤ +++ <50%)”. Further, the minimal effective dose under setting [2] is below 3 mg/kg.

For the origin of these results see patent publication US11077090B2, “Compounds and compositions and uses thereof” (Sunovion Pharmaceuticals Inc., priority 2016, dated 2021).
